Measurements reported in ChEMBL document CHEMBL4265931, “Identification of dual Sigma1 receptor modulators/acetylcholinesterase inhibitors with antioxidant and neurotrophic properties, as neuroprotective agents” (Eur J Med Chem, 2018).
Activity calls are given as the source filed them. The calls are words filed in the database; no cut-off is given here.

Experiments:
SH-SY5Y [1] = experiment: Cytotoxicity against human SH-SY5Y cells assessed as reduction in cell viability after 48 hrs by MTS assay; type: cell-based
[2] = Neurotoxicity in Sprague-Dawley rat embryo DRG neuron at 10 uM after 24 hrs; type: toxicity
in vitro [3] = conditions: human
Description: Cytotoxicity against human SH-SY5Y cells assessed as cell viability at 50 uM after 24 hrs by MTS assay relative to control

Acetylcholinesterase = Acetylcholinesterase (Electrophorus electricus, UniProt O42275); experiment: Inhibition of electric eel AChE using acetylthiocholine iodide as substrate preincubated for 5 mins followed by substrate addition and measured after 2 mins by Ellman's method
Acetylcholinesterase, sequence (O42275 whole entry): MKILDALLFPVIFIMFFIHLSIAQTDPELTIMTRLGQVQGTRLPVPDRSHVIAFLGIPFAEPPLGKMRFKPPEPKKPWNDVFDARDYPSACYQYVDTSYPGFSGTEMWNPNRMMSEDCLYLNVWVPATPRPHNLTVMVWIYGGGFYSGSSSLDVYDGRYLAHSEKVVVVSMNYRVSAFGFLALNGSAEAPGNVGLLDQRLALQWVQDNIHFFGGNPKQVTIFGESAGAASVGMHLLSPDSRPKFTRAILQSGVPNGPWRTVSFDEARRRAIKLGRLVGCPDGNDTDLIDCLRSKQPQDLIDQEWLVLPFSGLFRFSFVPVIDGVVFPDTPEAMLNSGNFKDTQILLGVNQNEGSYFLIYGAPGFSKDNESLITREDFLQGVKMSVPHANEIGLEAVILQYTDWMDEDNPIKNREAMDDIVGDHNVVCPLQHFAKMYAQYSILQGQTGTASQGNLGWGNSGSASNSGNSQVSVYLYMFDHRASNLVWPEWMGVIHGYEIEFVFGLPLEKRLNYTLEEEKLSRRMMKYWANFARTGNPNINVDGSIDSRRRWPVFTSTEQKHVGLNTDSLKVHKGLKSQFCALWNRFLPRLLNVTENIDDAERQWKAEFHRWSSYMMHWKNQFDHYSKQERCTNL

in vitro [4] = conditions: human; remark: listed apart in the source
Description: Cytotoxicity against human SH-SY5Y cells assessed as cell viability at 10 uM after 24 hrs by MTS assay relative to control

[5] = Displacement of [3H]-ifenprodil from GluN1a/GluN2B (unknown origin) expressed in mouse L(tk-) cell membranes after 120 mins by scintillation counting analysis; design: species or system Homo sapiens
in vitro [6] = conditions: human; remark: listed apart in the source
[7] = Antioxidant activity assessed as DPPH free radical scavenging at 465 uM after 20 mins by UV-Vis spectrophotometric analysis relative to control; type: functional
[8] = Neurotrophic activity in Sprague-Dawley rat embryo DRG neuron assessed as increase in neurite length at 2.5 to 5 uM after 24 to 48 hrs relative to control; type: functional
in vitro [9] = conditions: human; remark: listed apart in the source
Description: Cytotoxicity against human SH-SY5Y cells assessed as cell viability at 10 uM after 48 hrs by MTS assay relative to control

in vitro [10] = conditions: human; remark: listed apart in the source
Description: Cytotoxicity against human SH-SY5Y cells assessed as cell viability at 50 uM after 48 hrs by MTS assay relative to control

[11] = Neurotoxicity in Sprague-Dawley rat embryo DRG neuron at 10 uM after 48 hrs; type: toxicity
SH-SY5Y [12] = experiment: Neuroprotection against H2O2-induced oxidative stress in human SH-SY5Y cells assessed as reduction in ROS generation at 10 uM preincubated for 3 hrs followed by DCFDA addition for 45 mins and subsequent co-treatment with compound and H2O2 for 24 hrs by fluorescence assay relative to control; type: functional; design: scale not given: the % may be the effect or the level left
[13] = Selectivity ratio of Ki for S2R in rat liver membranes to Ki for S1R in guinea pig brain cortex membranes; type: cell membranes
SH-SY5Y [14] = experiment: Cytotoxicity against human SH-SY5Y cells assessed as reduction in cell viability after 24 hrs by MTS assay; type: cell-based
in vitro [15] = conditions: human; remark: listed apart in the source
[16] = Neurotoxicity in Sprague-Dawley rat embryo DRG neuron at 2.5 to 5 uM after 24 to 48 hrs; type: toxicity
[17] = target: T1, Sigma intracellular receptor 2 (Rattus norvegicus, UniProt Q5U3Y7); experiment: Displacement of [3H]-DTG from S2R in rat liver membranes after 120 mins by scintillation counting assay; type: cell membranes, Membrane
T1 sequence (Q5U3Y7 whole entry): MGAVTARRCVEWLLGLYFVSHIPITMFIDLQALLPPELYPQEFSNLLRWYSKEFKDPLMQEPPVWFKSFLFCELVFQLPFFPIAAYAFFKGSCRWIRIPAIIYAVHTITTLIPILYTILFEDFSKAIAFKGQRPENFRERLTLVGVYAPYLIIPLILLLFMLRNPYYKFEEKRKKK

[18] = target: Sigma non-opioid intracellular receptor 1 (Cavia porcellus, UniProt Q60492); design: species or system Hartley
Sigma non-opioid intracellular receptor 1, sequence (Q60492 whole entry): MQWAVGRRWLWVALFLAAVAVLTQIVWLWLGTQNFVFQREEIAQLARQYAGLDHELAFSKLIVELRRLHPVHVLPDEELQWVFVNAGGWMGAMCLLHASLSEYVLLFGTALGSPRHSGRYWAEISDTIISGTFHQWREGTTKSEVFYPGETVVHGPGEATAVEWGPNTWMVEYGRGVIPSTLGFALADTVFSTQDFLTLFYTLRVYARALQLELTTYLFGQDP
Description: Displacement of [3H]DTG from S1R in P2 fraction of Hartley guinea pig whole brain after 90 mins by liquid scintillation counting method

With `Cl.O=C(CCN1CCCCC1)c1ccc(-c2ccccc2)cc1` the IC50 (SH-SY5Y [1]; Homo sapiens, SH-SY5Y) was 22 µM, the Activity (SH-SY5Y [1]; human, sh-sy5y) was “Dose-dependent effect” and the Activity [2] was “Toxic”. For the same molecule, the viability at 24 h, 50 µM (in vitro [3]; SH-SY5Y cells) was 64%, the IC50 (Acetylcholinesterase) was 13.1 µM and the viability at 24 h, 10 µM (in vitro [4]; SH-SY5Y cells) was 104%. It also gave a Ki [5] of over 1 µM, a viability at 24 h, 25 µM (in vitro [6]; SH-SY5Y cells) of 95.4% and an Activity [7] of 15.5%. For the same molecule, the Activity [8] was 20%, the viability at 48 h, 10 µM (in vitro [9]; SH-SY5Y cells) was 95.9% and the viability at 48 h, 50 µM (in vitro [10]; SH-SY5Y cells) was 44.7%. For the same molecule, the Activity [11] was “Non-Toxic”, the Activity (SH-SY5Y [12]) was 18% and the Ratio Ki [13] was 30.8. For the same molecule, the IC50 (SH-SY5Y [14]; Homo sapiens, SH-SY5Y) was 37 µM, the Activity (SH-SY5Y [14]; human, sh-sy5y) was “Dose-dependent effect” and the viability at 48 h, 25 µM (in vitro [15]; SH-SY5Y cells) was 49.3%. The Activity [16] was “Non-Toxic” and the Ki [17] was 0.462 µM.
`COc1cc2c(cc1OC)C(=O)C(CC1CCN(Cc3ccccc3)CC1)C2` (centres undefined) [DONEPEZIL] gave a Ki [18] of 0.0146 µM, a viability at 24 h, 50 µM (in vitro [3]; sh-sy5y) of 94.7% and a viability at 24 h, 10 µM (in vitro [4]; sh-sy5y) of 100%. It also gave a viability at 24 h, 25 µM (in vitro [6]; sh-sy5y) of 99.3%, an Activity [7] of 4.4% and a viability at 48 h, 10 µM (in vitro [9]; sh-sy5y) of 94.3%. The viability at 48 h, 50 µM (in vitro [10]; sh-sy5y) was 64.4%, the Activity (SH-SY5Y [12]) was “inactive” and the viability at 48 h, 25 µM (in vitro [15]; sh-sy5y) was 80.4%.
